Assay results taken from patent publication US20040053822A1, “Inducing cellular immune responses to mage2/3 using peptide and nucleic acid compositions” (priority 2002, published 2004).
Read-outs that look alike come from different tables or passages of the source.

Key:
[1] = biological target: HLA-B*5301 (Homo sapiens, UniProt P01889, A329T/A93T/A95T/C349S/D201E/D98Y/E176V/E187L/E204Q/E69T/G107R/I218V/K202T/L105A/L119I/N104I/Q94N/R106L/R155S/R180L/S101N/S121R/S35A/S48A/T118I/V127L/V306I/V36M/Y140S/Y91F); experiment: Purified HLA class I peptide binding assay, B*5301
[2] = biological target: HLA-B*0702 (Homo sapiens, UniProt P01889); experiment: Purified HLA class I peptide binding assay, B*0702
[3] = biological target: HLA-B*3501 (Homo sapiens, UniProt P01889, A329T/A93T/A95T/C349S/D201E/D98Y/E176V/E187L/E204Q/E69T/I218V/K202T/L119I/Q94N/R155S/R180L/S121R/S35A/S48A/T118I/V127L/V306I/V36M/Y140S/Y91F); experiment: Purified HLA class I peptide binding assay, B*3501
[4] = biological target: HLA-B*5401 (Homo sapiens, UniProt P01889, A329T/C349S/D138N/D201E/E176V/E187T/E204Q/E69G/I76V/K202T/L119W/R155S/R180L/S121T/S35A/S48A/V127L/V306I/V36M/Y140L); experiment: Purified HLA class I peptide binding assay, B*5401
[5] = biological target: HLA-B*5101 (B51) (Homo sapiens, UniProt P01889, A329T/A93T/A95T/C349S/D138N/D201E/D98Y/E187L/E204Q/E69T/G107R/I218V/K202T/L105A/L119W/N104I/Q94N/R106L/R155S/R180L/S101N/S121T/S35A/S48A/V306I/V36M/Y195H/Y91F); experiment: Purified HLA class I peptide binding assay, B51; settings: binding affinity, HLA-B7 supermotif-bearing peptides
[6] = binding affinity, HLA-B7 supermotif-bearing peptides

Row | IC50 [1, 6] [µM] | IC50 [2, 6] [µM] | IC50 [3, 6] [µM] | IC50 [4, 6] [µM] | IC50 ([5]; read-out: B*5101 nM) [µM] | Structure (SMILES) | IC50 [1] [µM] | IC50 ([5]; B*5101 nM) [µM] | IC50 [2] [µM] | IC50 [3] [µM] | IC50 [4] [µM]
1 | 0.233 | 0.0029 | 0.36 | 0.0014 | – | CC[C@H](C)[C@H](NC(=O)[C@@H]1CCCN1C(=O)[C@@H]1CCCN1C(=O)[C@H](Cc1ccc(O)cc1)NC(=O)[C@H](CO)NC(=O)[C@@H](NC(=O)[C@H](Cc1c[nH]cn1)NC(=O)[C@@H]1CCCN1C(=O)[C@@H](N)Cc1ccccc1)[C@@H](C)CC)C(=O)O | – | – | – | – | –
2 | 0.49 | 0.0017 | – | 0.0038 | 0.177 | CC[C@H](C)[C@H](NC(=O)[C@H](Cc1c[nH]cn1)NC(=O)[C@@H]1CCCN1C(=O)[C@@H](N)Cc1ccccc1)C(=O)N[C@@H](CO)C(=O)N[C@@H](Cc1ccc(O)cc1)C(=O)N1CCC[C@H]1C(=O)N1CCC[C@H]1C(=O)N[C@@H](CC(C)C)C(=O)O | – | – | – | – | –
3 | 0.0085 | 0.063 | 0.139 | 0.0029 | 0.0057 | CC[C@H](C)[C@H](NC(=O)[C@H](Cc1ccccc1)NC(=O)[C@@H](NC(=O)[C@H](Cc1ccc(O)cc1)NC(=O)[C@H](CC(C)C)NC(=O)[C@H](Cc1c[nH]cn1)NC(=O)CNC(=O)[C@@H](NC(=O)[C@@H]1CCCN1C(=O)[C@@H](N)Cc1ccccc1)[C@@H](C)CC)[C@@H](C)CC)C(=O)O | – | – | – | – | –
4 | – | 0.0034 | 0.077 | 0.0006 | 0.005 | CC[C@H](C)[C@H](NC(=O)[C@@H](NC(=O)[C@H](Cc1ccc(O)cc1)NC(=O)[C@H](CC(C)C)NC(=O)[C@H](Cc1c[nH]cn1)NC(=O)CNC(=O)[C@@H](NC(=O)[C@@H]1CCCN1C(=O)[C@@H](N)Cc1ccccc1)[C@@H](C)CC)[C@@H](C)CC)C(=O)O | – | – | – | – | –
5 | – | – | – | – | – | CC[C@H](C)[C@H](NC(=O)[C@H](Cc1ccc(O)cc1)NC(=O)[C@H](CC(C)C)NC(=O)[C@H](Cc1c[nH]cn1)NC(=O)[C@H](CO)NC(=O)[C@@H](NC(=O)[C@@H]1CCCN1C(=O)[C@@H](N)Cc1ccccc1)[C@@H](C)CC)C(=O)O | 0.358 | 0.042 | 0.212 | 0.655 | 0.059
6 | 0.0044 | 0.0029 | – | 0.0006 | 0.0042 | CC[C@H](C)[C@H](NC(=O)[C@@H](NC(=O)[C@H](Cc1ccc(O)cc1)NC(=O)[C@H](CC(C)C)NC(=O)[C@H](Cc1c[nH]cn1)NC(=O)[C@H](CO)NC(=O)[C@@H](NC(=O)[C@@H]1CCCN1C(=O)[C@@H](N)Cc1ccccc1)[C@@H](C)CC)[C@@H](C)CC)C(=O)O | – | – | – | – | –
7 | 0.0049 | 0.097 | – | 0.0026 | 0.013 | CC[C@H](C)[C@H](NC(=O)[C@H](CC(C)C)NC(=O)[C@@H](NC(=O)[C@H](Cc1ccc(O)cc1)NC(=O)[C@H](CC(C)C)NC(=O)[C@H](Cc1c[nH]cn1)NC(=O)[C@H](CO)NC(=O)[C@@H](NC(=O)[C@@H]1CCCN1C(=O)[C@@H](N)Cc1ccccc1)[C@@H](C)CC)[C@@H](C)CC)C(=O)O | – | – | – | – | –
8 | 0.775 | – | > 10 | – | 0.0082 | CC[C@H](C)[C@H](NC(=O)[C@H](CC(C)C)NC(=O)[C@H](CC(C)C)NC(=O)CNC(=O)[C@H](C)NC(=O)[C@H](CCCCN)NC(=O)[C@@H]1CCCN1C(=O)[C@@H](N)Cc1ccccc1)C(=O)O | – | – | – | – | –
9 | 0.846 | 0.204 | 2.67 | – | 0.065 | CC[C@H](C)[C@H](NC(=O)[C@@H](NC(=O)[C@@H](NC(=O)[C@H](CC(C)C)NC(=O)[C@H](CC(C)C)NC(=O)CNC(=O)[C@H](C)NC(=O)[C@H](CCCCN)NC(=O)[C@@H]1CCCN1C(=O)[C@@H](N)Cc1ccccc1)[C@@H](C)CC)[C@@H](C)CC)C(=O)O | – | – | – | – | –
10 | 3.32 | 0.134 | > 10 | 0.037 | 0.016 | CC[C@H](C)[C@H](NC(=O)[C@H](CC(C)C)NC(=O)[C@H](CC(C)C)NC(=O)CNC(=O)[C@@H](NC(=O)[C@H](CCCCN)NC(=O)[C@@H]1CCCN1C(=O)[C@@H](N)Cc1ccccc1)[C@@H](C)O)C(=O)O | – | – | – | – | –
11 | 0.266 | – | > 10 | 0.01 | 0.032 | CC[C@H](C)[C@H](NC(=O)[C@@H](NC(=O)[C@H](CC(C)C)NC(=O)[C@H](CC(C)C)NC(=O)CNC(=O)[C@@H](NC(=O)[C@H](CCCCN)NC(=O)[C@@H]1CCCN1C(=O)[C@@H](N)Cc1ccccc1)[C@@H](C)O)[C@@H](C)CC)C(=O)O | – | – | – | – | –
12 | 0.245 | 0.122 | 1.01 | 0.015 | – | CC[C@H](C)[C@H](NC(=O)[C@H](CO)NC(=O)[C@H](CCC(N)=O)NC(=O)[C@H](CO)NC(=O)[C@H](Cc1c[nH]c2ccccc12)NC(=O)[C@H](CC(C)C)NC(=O)[C@@H]1CCCN1C(=O)[C@@H](N)Cc1ccccc1)C(=O)O | – | – | – | – | –
13 | 3 | – | > 10 | 0.4 | – | CC[C@H](C)[C@H](NC(=O)[C@H](CO)NC(=O)[C@H](CO)NC(=O)[C@H](C)NC(=O)CNC(=O)[C@H](CCC(N)=O)NC(=O)[C@@H]1CCCN1C(=O)[C@@H](N)Cc1ccccc1)C(=O)O | – | – | – | – | –
14 | 7.75 | 0.0063 | 4.5 | 0.0071 | 0.128 | CC[C@H](C)[C@H](NC(=O)[C@H](CC(C)C)NC(=O)[C@H](C)NC(=O)[C@H](CCCNC(=N)N)NC(=O)[C@@H]1CCCN1C(=O)[C@@H](N)Cc1ccccc1)C(=O)N[C@@H](CCC(=O)O)C(=O)N[C@H](C(=O)N[C@@H](CO)C(=O)N[C@@H](Cc1ccc(O)cc1)C(=O)N[C@H](C(=O)O)C(C)C)[C@@H](C)O | – | – | – | – | –
15 | 0.62 | – | 5.54 | 0.059 | 0.117 | CC[C@H](C)[C@H](NC(=O)[C@H](Cc1ccc(O)cc1)NC(=O)[C@H](CO)NC(=O)[C@@H](NC(=O)[C@H](CCC(=O)O)NC(=O)[C@@H](NC(=O)[C@H](CC(C)C)NC(=O)[C@H](C)NC(=O)[C@H](CCCNC(=N)N)NC(=O)[C@@H]1CCCN1C(=O)[C@@H](N)Cc1ccccc1)C(C)C)[C@@H](C)O)C(=O)O | – | – | – | – | –
16 | > 10 | 0.0042 | 4.23 | 0.01 | 0.204 | CC(C)C[C@H](NC(=O)[C@H](C)NC(=O)[C@H](CCCNC(=N)N)NC(=O)[C@@H]1CCCN1C(=O)[C@@H](N)Cc1ccccc1)C(=O)N[C@H](C(=O)N[C@@H](CCC(=O)O)C(=O)N[C@H](C(=O)N[C@@H](CO)C(=O)N[C@@H](Cc1ccc(O)cc1)C(=O)N[C@H](C(=O)O)C(C)C)[C@@H](C)O)C(C)C | – | – | – | – | –
17 | – | 0.086 | > 10 | 0.1 | 0.367 | CC[C@H](C)[C@H](NC(=O)[C@H](CC(C)C)NC(=O)[C@H](CC(=O)O)NC(=O)[C@H](CCC(N)=O)NC(=O)[C@H](CCSC)NC(=O)[C@H](CC(C)C)NC(=O)[C@H](CC(C)C)NC(=O)[C@H](CCCCN)NC(=O)[C@H](CCCNC(=N)N)NC(=O)[C@@H]1CCCN1C(=O)[C@@H](N)Cc1ccccc1)C(=O)O | – | – | – | – | –
18 | 0.0085 | 0.059 | 0.022 | 0.0015 | – | CC[C@H](C)[C@H](NC(=O)[C@@H]1CCCN1C(=O)[C@H](Cc1ccc(O)cc1)NC(=O)[C@H](CC(N)=O)NC(=O)[C@H](CCSC)NC(=O)[C@@H](NC(=O)[C@@H](NC(=O)[C@@H]1CCCN1C(=O)[C@@H](N)Cc1ccccc1)[C@@H](C)O)[C@@H](C)O)C(=O)O | – | – | – | – | –
19 | – | 0.22 | – | 0.042 | > 10 | CSCC[C@H](NC(=O)[C@@H](NC(=O)[C@@H](NC(=O)[C@@H]1CCCN1C(=O)[C@@H](N)Cc1ccccc1)[C@@H](C)O)[C@@H](C)O)C(=O)N[C@@H](CC(N)=O)C(=O)N[C@@H](Cc1ccc(O)cc1)C(=O)N1CCC[C@H]1C(=O)N[C@@H](CC(C)C)C(=O)N[C@@H](Cc1c[nH]c2ccccc12)C(=O)O | – | – | – | – | –
